PMC7730863 (Journal of medicinal chemistry, 2020)

Target: EGFR-L858R/T790M (Homo sapiens, UniProt P00533, L858R/T790M)
Test: radiolabeled 33P
Type: biochemical
Conditions: statement in text referring to Table 1

EGFR-L858R/T790M, sequence (P00533 25-1210 T790M/L858R): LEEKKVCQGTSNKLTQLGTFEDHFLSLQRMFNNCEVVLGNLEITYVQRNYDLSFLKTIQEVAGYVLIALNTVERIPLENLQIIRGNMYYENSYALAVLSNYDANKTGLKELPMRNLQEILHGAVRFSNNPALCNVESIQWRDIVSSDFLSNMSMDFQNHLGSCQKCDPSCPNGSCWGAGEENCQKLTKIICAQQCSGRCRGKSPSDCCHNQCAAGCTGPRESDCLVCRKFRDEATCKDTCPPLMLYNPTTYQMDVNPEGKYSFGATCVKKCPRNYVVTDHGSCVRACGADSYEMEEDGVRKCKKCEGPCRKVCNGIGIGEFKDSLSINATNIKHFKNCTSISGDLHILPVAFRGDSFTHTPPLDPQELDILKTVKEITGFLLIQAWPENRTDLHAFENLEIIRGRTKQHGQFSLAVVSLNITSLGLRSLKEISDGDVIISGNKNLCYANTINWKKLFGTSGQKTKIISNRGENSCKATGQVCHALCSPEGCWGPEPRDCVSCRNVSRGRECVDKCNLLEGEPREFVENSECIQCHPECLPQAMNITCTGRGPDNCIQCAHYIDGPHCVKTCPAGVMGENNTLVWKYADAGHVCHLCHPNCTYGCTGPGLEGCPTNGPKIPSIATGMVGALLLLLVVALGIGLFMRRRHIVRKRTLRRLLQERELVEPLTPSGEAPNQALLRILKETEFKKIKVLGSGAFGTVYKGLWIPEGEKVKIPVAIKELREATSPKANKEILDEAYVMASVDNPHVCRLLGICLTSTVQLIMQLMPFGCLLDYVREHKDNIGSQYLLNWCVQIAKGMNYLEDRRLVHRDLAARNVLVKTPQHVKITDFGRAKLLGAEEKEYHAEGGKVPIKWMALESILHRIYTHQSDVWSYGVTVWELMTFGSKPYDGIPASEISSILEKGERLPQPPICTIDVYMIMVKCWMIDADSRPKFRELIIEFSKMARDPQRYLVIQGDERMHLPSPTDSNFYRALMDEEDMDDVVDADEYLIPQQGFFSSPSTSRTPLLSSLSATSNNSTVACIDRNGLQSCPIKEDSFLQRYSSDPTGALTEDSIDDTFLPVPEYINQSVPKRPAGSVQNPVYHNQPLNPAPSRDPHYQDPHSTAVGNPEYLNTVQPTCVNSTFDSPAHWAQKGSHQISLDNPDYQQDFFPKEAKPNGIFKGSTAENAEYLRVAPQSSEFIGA

Q: Which “potency against EGFR(L858R/T790M), in words” value does the source give for `C=CC(=O)Nc1ccc(OC)c(Nc2cc(-c3nc(SC)n(C)c3-c3ccc(F)cc3)ccn2)c1` [Compound 7, N-(3-((4-(5-(4-fluorophenyl)-1-methyl-2-(methylthio)-1H-imidazol-4-yl)pyridin-2-yl)amino)-4-methoxyphenyl)acrylamide] here?
A: The value was “low nanomolar potency”.
